Data as given in patent EP4114474B1, “HEMOSTATIC AGENT” (Industria Farmaceutica Nova Argentia S.r.l., priority 2020, dated 2021).

Tests used:
NIH3T3L6 fibroblasts = test: In vitro cytotoxicity, trypan blue cell viability; format: cell-based, murine
Procedure: The cytotoxic effect was assessed in vitro thanks to the use of murine fibroblasts (NIH3T3L6 fibroblasts from Leibniz-Institute DSMZ-Deutsche Sammlung von Mikroorganismen und Zellkulturen GmbH; Brunswick, Germany) and, once the cells were propagated, we prepared the following experimental groups: • control (NIH3T3L6 cells without any treatment); • iron chloride 5% ([…]); • iron ammonium citrate 5.3% + Rock alum 1.7% ([…] 5.3% + Rock alum 1.7%); • iron ammonium citrate 5.3% ([…] 5.3%); • Rock alum 1.7% ([…]).
The in vitro cytotoxicity analysis thanks to the evaluation of the trypan blue allowed us to obtain the percentage of viable cells in each experimental group.

[1] = Coagulation tests with combinations of ferric and ferrous salts and other potentially coagulating salts (Example 2); conditions: CONC. TEST 5.00% by weight
Procedure: Before reaching the formula object of the invention various other combinations of ferric and ferrous Salts with other potentially coagulating Salts were tested. Below are briefly reported the combinations of Salts tested and the results obtained also in comparison with Ferric Chloride.

SMILES: O.O.O.O.O.O.[Cl-].[Cl-].[Cl-].[Fe+3] [Ferric Chloride (FeCl3 · 6H2O)]
- cytotoxic effect (cell death, percentage of viable cells by trypan blue) (NIH3T3L6 fibroblasts; NIH3T3L6 cells incubated 30" with 100µL): significant cell death
- cell death (NIH3T3L6 fibroblasts; incubation of murine fibroblasts for a time greater than 45"-50"): complete cell death
- RESULTS (coagulation) [1]: coagulates
